Patent US11839212B2, “Synergistic pesticidal compositions and methods for delivery of insecticidal active ingredients” (0903608 B.C. Ltd., priority 2018, dated 2023)
Read-outs that look alike come from different tables or passages of the source. One block for each compound: values may come before it.

Key:
Trichoplusia ni [1] = assay: In-planta insecticidal efficacy on sprayed cabbage plants, Pylon® (chlorfenapyr) with unsaturated aliphatic acids (Colby synergy factor); format: in vivo; settings: 0.06 mg/mL aliphatic acid (salt)
Description: A stock solution was prepared for trans-2-hexenoic acid (available from Sigma-Aldrich, St. […] Green cabbage plants (Brassica oleracea var. capitate, Danish Ballhead cultivar) were grown from seed (available from West Coast Seeds, Delta, BC, Canada) in potting soil for 4 weeks in a pest-free indoor growing environment. At 4 weeks of age, each cabbage plant was sprayed with 10 mL of treatment solution using a hand pump sprayer bottle, and allowed to dry. […] The treated cabbage plants were then placed in nylon isolation tents and kept in an indoor growing environment and the larvae were left to feed on the plants. In one set of cabbage plants, the larvae were left to feed for 48 hours, and then the number of surviving larvae were observed and survival rates (%) were determined. In a second separate set of cabbage plants, the larvae were left to feed for 72 hours, and then the number of surviving larvae were observed and survival rates (%) were determined. Each experiment was repeated at least 3 times. […] In accordance with the Colby Formula, the expected efficacy, E (%), of a combination treatment of compounds A and B in concentrations a and b, respectively, can be determined by evaluating: […] The existence and extent of synergy present in a combination treatment can be determined according to the Colby Formula by evaluating a Synergy Factor, SF=(Observed efficacy)/(Expected efficacy).

Trichoplusia ni [2] = assay: In-vitro insecticidal efficacy on artificial diet, spinosad (Entrust® SC) with aliphatic acids (Abbott efficacy, Colby synergy factor); format: in vivo; settings: Entrust SC 0.034 ppm ([…] spinosad); aliphatic acid (salt) 500 ppm; after 5 days; Abbott-corrected
Description: An artificial diet suitable for Trichoplusia ni (cabbage looper caterpillar) was prepared from a commercially available general purpose lepidoptera artificial diet premix (General Purpose Lepidoptera Diet available from Frontier Scientific Services, Newark, DE) mixed in agar media and then heated to liquify the media. The liquid artificial diet media was then used to fill each well of a 96-well treatment plate with 200 uL of artificial diet media, which was allowed to solidify at room temperature and stored at approximately 4 C.
A 20 uL treatment sample of each treatment formulation was then placed on top of the solidified artificial diet media in each well of the 96 well plates and allowed to dry overnight. The following day, one neonate Trichoplusia ni (cabbage looper) larva (hatched from eggs obtained from the Natural Resource Canada insect research facility in Sault-Ste-Marie, ON, Canada) was added to each well of the plate, and their mortality rate was evaluated after 5 days, to determine the insecticidal efficacy of the Entrust® SC treatment alone, each exemplary unsaturated or saturated aliphatic acid (and salt) alone, and each combination of spinosad (as Entrust® SC) and unsaturated or saturated aliphatic acid (and salt). Each experiment contained 3 replicates.
(§1) While for SF<1, antagonism is present and for SF=1, the efficacy of the compounds is merely additive.

Fusarium oxysporum = assay: Synergistic Growth Inhibition Assay (MIC and FIC index, 96-well, resazurin); format: cell-based; settings: Fusarium oxysporum, Compound B alone
How it was run: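 Checkerboard dilutions of pesticidal active plus C6–C10 (or C11/C12) aliphatic acid in 96-well plates; growth scored by resazurin colour change, optionally visual.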

Botrytis cinerea = assay: as above; format: cell-based; settings: Botrytis cinerea, 48 h, Compound B alone
How it was run: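 Checkerboard microdilution of pesticidal active ingredient combined with C6–C10 (or C11/C12) aliphatic acid against Botrytis cinerea, with growth read by resazurin colour change plus visual check. FIC index = sum of each agent's concentration in the inhibiting well divided by its MIC alone; 1 denotes additivity.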

Trichoplusia ni [3] = assay: In-planta insecticidal efficacy on sprayed cabbage plants, spinosad (Entrust® SC) with octanoic acid (Abbott efficacy, Colby synergy factor); format: in vivo; settings: octanoic acid alone at 100 ppm; Abbott-corrected
Description: Green cabbage plants (Brassica oleracea var. capitate, Danish Ballhead cultivar) were grown from seed (available from West Coast Seeds, Delta, BC, Canada) in potting soil for 4-6 weeks in a pest-free indoor growing environment. At between 4-6 weeks of age, each cabbage plant was sprayed with 20 mL of treatment solution using a pressurized CO2 sprayer, and allowed to dry.
as §1

Sclerotinia sclerotiorum = assay: Synergistic Growth Inhibition Assay (MIC and FIC index, 96-well, resazurin); format: cell-based; settings: Sclerotinia sclerotiorum, […], Compound B alone, incubation 7 days
How it was run: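 Checkerboard of pesticidal active ingredient combined with C6–C10 (or C11/C12) aliphatic acids in serial dilutions against Sclerotinia sclerotiorum. Growth scored by resazurin colour change plus visual inspection; FIC index is the sum of each agent's concentration divided by its MIC alone, with 1 indicating additivity.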

Alternaria solani = assay: as above; format: cell-based; settings: Alternaria solani, […], read-out: MIC (B)
How it was run: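 Checkerboard assay in 96-well plates: serial dilutions of active ingredient combined with C6–C10 aliphatic acid, fungus pre-grown to exponential phase in potato dextrose broth. MIC per agent alone and in combination; FIC = combination concentration/MIC alone, FIC index = sum of both agents' FICs (1 = additive).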

SMILES: CC=CC=CC(=O)[O-].[K+] [2,4-hexadienoic acid, K-salt]
Observed Efficacy (%) (Trichoplusia ni [1]; after 48 hours): 13%
Observed Efficacy (%) (Trichoplusia ni [1]; after 72 hours): 0%

SMILES: C/C=C/C=C/C(=O)[O-].[K+] [(2E,4E)-2,4 hexadienoic acid, K-salt]
Observed Efficacy, W (%) (Trichoplusia ni [2]): 9.1%

SMILES: CCCCCCCC(=O)[O-].[K+] [Octanoic acid, K-salt]
Observed Efficacy, W (%) (Trichoplusia ni [2]): 0%

MIC (Fusarium oxysporum; 24 h, Table 7, 24 hour incubation, read-out: MIC(B)): 569 µg/mL
MIC (Fusarium oxysporum; 24 h, Table 9, 24 hour incubation, read-out: MIC (B)): 569 µg/mL
MIC (Fusarium oxysporum; Table 8, read-out: MIC (B)): 1140 µg/mL
MIC (Botrytis cinerea; Table 58, 48 hours incubation, read-out: MIC (B)): 625 µg/mL
SMILES: CCCCCCCC(=O)O [Octanoic acid, octanoic acid]
Observed Efficacy, W (%) (Trichoplusia ni [3]): 0%

SMILES: CCCC=CCC(=O)O [3-heptanoic acid]
Observed Efficacy, W (%) (Trichoplusia ni [2]): 4.5%

SMILES: CCCCCC(=O)O [Hexanoic acid, hexanoic acid]
MIC (Fusarium oxysporum; 24 h, read-out: MIC(B), Table 7, 24 hour incubation): 145 µg/mL
MIC (Fusarium oxysporum; read-out: MIC (B), Table 8): 290 µg/mL
MIC (Botrytis cinerea; read-out: MIC (B), Table 21, incubation 48 hours): 78.1 µg/mL
MIC (Botrytis cinerea; read-out: MIC (B), Table 22, incubation 48 hours): 78.1 µg/mL
MIC (Botrytis cinerea; read-out: MIC (B), Table 25, 48 hours incubation): 78.1 µg/mL
MIC (Sclerotinia sclerotiorum; read-out: MIC (B), Table 16): 39.1 µg/mL
MIC (Sclerotinia sclerotiorum; read-out: MIC (B), Table 17): 39.1 µg/mL
MIC (Sclerotinia sclerotiorum; read-out: MIC (B), Table 19): 78.1 µg/mL
MIC (Alternaria solani): 156 µg/mL
